Results from the NIST ThermoML archive (doi:10.1021/je400332j).

What was measured:
[1] = 101.33 kPa, Liquid; for viscosity: Concentric cylinders viscometry; for mass density: Vibrating tube method
[2] = xn = mol fraction of the nth substance listed; conditions: 101 kPa, Liquid; for viscosity: Concentric cylinders viscometry; for mass density: Vibrating tube method

CCn1cc[n+](C)c1.F[B-](F)(F)F [1-ethyl-3-methylimidazolium tetrafluoroborate]
[1]
Conditions	mass density [kg/m3]	viscosity [mPa·s]
293.15 K	1283.9	45.47
298.15 K	1280	37.46
303.15 K	1276.2	31.29
308.15 K	1272.4	26.45
313.15 K	1268.6	22.61
318.15 K	1264.9	19.51
323.15 K	1261.2	17
328.15 K	1257.4	14.92
333.15 K	1253.8	13.2
338.15 K	1250.1	11.76
343.15 K	1246.5	10.54

CCn1cc[n+](C)c1.F[B-](F)(F)F [1-ethyl-3-methylimidazolium tetrafluoroborate] + CCCCCCn1cc[n+](C)c1.F[B-](F)(F)F
[2], x1 = 1
Conditions	mass density [kg/m3]	viscosity [mPa·s]
293.15 K	1283.9	45.47
298.15 K	1280	37.46
303.15 K	1276.2	31.29
308.15 K	1272.4	26.45
313.15 K	1268.6	22.61
318.15 K	1264.9	19.51
323.15 K	1261.2	17
328.15 K	1257.4	14.92
333.15 K	1253.8	13.2
338.15 K	1250.1	11.76
343.15 K	1246.5	10.54

CCn1cc[n+](C)c1.F[B-](F)(F)F [1-ethyl-3-methylimidazolium tetrafluoroborate] + CCCn1cc[n+](C)c1.F[B-](F)(F)F
[2], x1 = 1
Conditions	mass density [kg/m3]	viscosity [mPa·s]
293.15 K	1283.9	45.47
298.15 K	1280	37.46
303.15 K	1276.2	31.29
308.15 K	1272.4	26.45
313.15 K	1268.6	22.61
318.15 K	1264.9	19.51
323.15 K	1261.2	17
328.15 K	1257.4	14.92
333.15 K	1253.8	13.2
338.15 K	1250.1	11.76
343.15 K	1246.5	10.54

CCCCCCn1cc[n+](C)c1.F[B-](F)(F)F [1-hexyl-3-methylimidazolium tetrafluoroborate]
[1]
Conditions	mass density [kg/m3]	viscosity [mPa·s]
293.15 K	1147.5	280.4
298.15 K	1144.1	206.3
303.15 K	1140.6	154.9
308.15 K	1137.2	118.7
313.15 K	1133.7	92.56
318.15 K	1130.3	73.37
323.15 K	1127	59.03
328.15 K	1123.6	48.16
333.15 K	1120.2	39.71
338.15 K	1116.8	33.21
343.15 K	1113.4	28.03

CCCCCCn1cc[n+](C)c1.F[B-](F)(F)F [1-hexyl-3-methylimidazolium tetrafluoroborate] + CCCn1cc[n+](C)c1.F[B-](F)(F)F
[2], x2 = 0
Conditions	mass density [kg/m3]	viscosity [mPa·s]
293.15 K	1147.5	280.4
298.15 K	1144.1	206.3
303.15 K	1140.6	154.9
308.15 K	1137.2	118.7
313.15 K	1133.7	92.56
318.15 K	1130.3	73.37
323.15 K	1127	59.03
328.15 K	1123.6	48.16
333.15 K	1120.2	39.71
338.15 K	1116.8	33.21
343.15 K	1113.4	28.03

CCCn1cc[n+](C)c1.F[B-](F)(F)F [1-propyl-3-methylimidazolium tetrafluoroborate]
[1]
Conditions	mass density [kg/m3]	viscosity [mPa·s]
293.15 K	1239.3	95.44
298.15 K	1235.7	74.04
303.15 K	1232	58.59
308.15 K	1228.3	47.16
313.15 K	1224.7	38.56
318.15 K	1221	31.98
323.15 K	1217.4	26.83
328.15 K	1213.8	22.77
333.15 K	1210.2	19.54
338.15 K	1206.6	16.92
343.15 K	1203	14.77
